Measurements reported in patent US20210198256A1, “COMPOUNDS FOR THE DEGRADATION OF BRD9 OR MTH1” (C4 Therapeutics, Inc., priority 2018, published 2021).

Tested on: SMARTCAR-MTH1-wt-HiBiT (Jurkat.7 cells)
Experiment: HiBit Lytic Assay (HiBit DC50, MTH1 degraders of Table 2)
Assay type: cell-based, human
Conditions: Jurkat.7 SMARTCAR-MTH1-wt-HiBiT cells, compound treatment time 4 hr, 11-point half log dose response
Method in brief: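 Jurkat.7 cells expressing SMARTCAR-MTH1-wt-HiBiT were treated at 37° C with 11-point half-log dilutions (top final 1000 nM or 833 nM, duplicates, 0.1% DMSO). Remaining HiBiT-tagged protein was read by Nano-Glo HiBiT lytic luminescence, normalized to media-only and DMSO controls.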

Row | Compound | DC50 [nM]
1 | CNc1c(C(=O)NC2CC2)cnc2cc(C(F)(F)F)c(-c3ccc(C(=O)NCCCCn4cc(C(C)(C)Nc5cccc6c5C(=O)N(C5CCC(=O)NC5=O)C6=O)nn4)c(F)c3)cc12 (centres unmarked) [Compound 435, N-cyclopropyl-6-(4-((4-(4-(2-((2-(2,6-dioxopiperidin-3-yl)-1,3-dioxoisoindolin-4-yl)amino)propan-2-yl)-1H-1,2,3-triazol-1-yl)butyl)carbamoyl)-3-fluorophenyl)-4-(methylamino)-7-(trifluoromethyl)quinoline-3-carboxamide] | < 100
2 | CNc1c(C(=O)NC2CC2)cnc2cc(F)c(-c3ccc(C(=O)NCCCCn4cc(C(C)(C)Nc5cccc6c5C(=O)N(C5CCC(=O)NC5=O)C6=O)nn4)c(F)c3)cc12 (centres unmarked) [Compound 436, N-cyclopropyl-6-(4-((4-(4-(2-((2-(2,6-dioxopiperidin-3-yl)-1,3-dioxoisoindolin-4-yl)amino)propan-2-yl)-1H-1,2,3-triazol-1-yl)butyl)carbamoyl)-3-fluorophenyl)-7-fluoro-4-(methylamino)quinoline-3-carboxamide] | < 100
3 | CNc1c(C(=O)NC2CC2)cnc2cc(C(F)(F)F)c(-c3ccc(C(=O)NCCCCn4cc(C(C)(C)Nc5cccc6c5C(=O)N(C5CCC(=O)NC5=O)C6=O)nn4)nc3)cc12 (centres unmarked) [Compound 437, N-cyclopropyl-6-(6-((4-(4-(2-((2-(2,6-dioxopiperidin-3-yl)-1,3-dioxoisoindolin-4-yl)amino)propan-2-yl)-1H-1,2,3-triazol-1-yl)butyl)carbamoyl)pyridin-3-yl)-4-(methylamino)-7-(trifluoromethyl)quinoline-3-carboxamide] | < 100
4 | O=C1CCC(N2Cc3c(CCCC(O)C(=O)NCCNC(=O)c4ccc(-c5cc6c(Nc7ccccc7)c(C(=O)NC7CC7)cnc6cc5F)cc4F)cccc3C2=O)C(=O)N1 (centres unmarked) [Compound 439, N-cyclopropyl-6-(4-((2-(5-(2-(2,6-dioxopiperidin-3-yl)-1-oxoisoindolin-4-yl)-2-hydroxypentanamido)ethyl)carbamoyl)-3-fluorophenyl)-7-fluoro-4-(phenylamino)quinoline-3-carboxamide] | < 100
5 | O=C1CCC(N2C(=O)c3cccc(NCC(O)C(=O)NCCCNC(=O)c4ccc(-c5cc6c(Nc7ccccc7)c(C(=O)NC7CC7)cnc6cc5F)cc4F)c3C2=O)C(=O)N1 (centres unmarked) [Compound 440, N-cyclopropyl-6-(4-((3-(3-((2-(2,6-dioxopiperidin-3-yl)-1,3-dioxoisoindolin-4-yl)amino)-2-hydroxypropanamido)propyl)carbamoyl)-3-fluorophenyl)-7-fluoro-4-(phenylamino)quinoline-3-carboxamide] | < 100
6 | CNC(=O)c1cnc2ccc(NCCCCCCCCCCNC(=O)CNc3cccc4c3CN(C3CCC(=O)NC3=O)C4=O)cc2c1Nc1ccccc1 (centres unmarked) [Compound 441, 6-((10-(2-((2-(2,6-dioxopiperidin-3-yl)-1-oxoisoindolin-4-yl)amino)acetamido)decyl)amino)-N-methyl-4-(phenylamino)quinoline-3-carboxamide] | < 100
7 | CNC(=O)c1cnc2ccc(NCCCCCCCCCCNC(=O)C(C)Oc3cccc4c3C(=O)N(C3CCC(=O)NC3=O)C4=O)cc2c1Nc1ccccc1 (centres unmarked) [Compound 442, 6-((10-(2-((2-(2,6-dioxopiperidin-3-yl)-1,3-dioxoisoindolin-4-yl)oxy)propanamido)decyl)amino)-N-methyl-4-(phenylamino)quinoline-3-carboxamide] | < 100
8 | CNC(=O)c1cnc2ccc(NCCCCCCCCCCNC(=O)[C@@H](C)Nc3cccc4c3C(=O)N(C3CCC(=O)NC3=O)C4=O)cc2c1Nc1ccccc1 (stereo partly drawn) [Compound 443, 6-((10-((2R)-2-((2-(2,6-dioxopiperidin-3-yl)-1,3-dioxoisoindolin-4-yl)amino)propanamido)decyl)amino)-N-methyl-4-(phenylamino)quinoline-3-carboxamide] | < 100
9 | CNC(=O)c1cnc2ccc(NCCCCCCCCCCNC(=O)C(C)Nc3cccc4c3C(=O)N(C3CCC(=O)NC3=O)C4=O)cc2c1Nc1ccccc1 (centres unmarked) [Compound 444, 6-((10-(2-((2-(2,6-dioxopiperidin-3-yl)-1,3-dioxoisoindolin-4-yl)amino)propanamido)decyl)amino)-N-methyl-4-(phenylamino)quinoline-3-carboxamide] | < 100
10 | CNC(=O)c1cnc2ccc(NCCCCCCCCCCNC(=O)[C@H](C)Nc3cccc4c3C(=O)N(C3CCC(=O)NC3=O)C4=O)cc2c1Nc1ccccc1 (stereo partly drawn) [Compound 445, 6-((10-((2S)-2((2-(2,6-dioxopiperidin-3-yl)-1,3-dioxoisoindolin-4-yl)amino)propanamido)decyl)amino)-N-methyl-4-(phenylamino)quinoline-3-carboxamide] | < 100
11 | CNC(=O)c1cnc2ccc(C(=O)NCCCCCCCCCNC(=O)COc3cccc4c3C(=O)N(C3CCC(=O)NC3=O)C4=O)cc2c1Nc1ccccc1 (centres unmarked) [Compound 446, N6-(9-(2-((2-(2,6-dioxopiperidin-3-yl)-1,3-dioxoisoindolin-4-yl)oxy)acetamido)nonyl)-N3-methyl-4-(phenylamino)quinoline-3,6-dicarboxamide] | < 100
12 | CNC(=O)c1cnc2ccc(NCCCCCCCCCCNC(=O)CN(C)c3cccc4c3C(=O)N(C3CCC(=O)NC3=O)C4=O)cc2c1Nc1ccccc1 (centres unmarked) [Compound 447, 6-((10-(2-((2-(2,6-dioxopiperidin-3-yl)-1,3-dioxoisoindolin-4-yl)(methyl)amino)acetamido)decyl)amino)-N-methyl-4-(phenylamino)quinoline-3-carboxamide] | < 100
13 | CNC(=O)c1cnc2ccc(NCCCCCCCCCCNC(=O)COc3cccc4c3C(=O)N(C3CCC(=O)NC3=O)C4=O)cc2c1NCc1ccccc1 (centres unmarked) [Compound 448, 4-(benzylamino)-6-((10-(2-((2-(2,6-dioxopiperidin-3-yl)-1,3-dioxoisoindolin-4-yl)oxy)acetamido)decyl)amino)-N-methylquinoline-3-carboxamide] | < 100
14 | CNC(=O)c1cnc2ccc(NCCCCCCCCCCNC(=O)COc3cccc4c3C(=O)N(C3CCC(=O)NC3=O)C4=O)cc2c1Nc1ccccc1 (centres unmarked) [Compound 449, 6-((10-(2-((2-(2,6-dioxopiperidin-3-yl)-1,3-dioxoisoindolin-4-yl)oxy)acetamido)decyl)amino)-N-methyl-4-(phenylamino)quinoline-3-carboxamide] | < 100
15 | CNC(=O)c1cnc2ccc(C(=O)NCCCCCCCCCCNC(=O)COc3cccc4c3C(=O)N(C3CCC(=O)NC3=O)C4=O)cc2c1Nc1ccccc1 (centres unmarked) [Compound 450, N6-(10-(2-((2-(2,6-dioxopiperidin-3-yl)-1,3-dioxoisoindolin-4-yl)oxy)acetamido)decyl)-N3-methyl-4-(phenylamino)quinoline-3,6-dicarboxamide] | < 100
16 | CNC(=O)c1cnc2ccc(NCCCCCCCCCCNC(=O)CNc3cccc4c3C(=O)N(C3CCC(=O)NC3=O)C4=O)cc2c1Nc1ccccc1 (centres unmarked) [Compound 451, 6-((10-(2-((2-(2,6-dioxopiperidin-3-yl)-1,3-dioxoisoindolin-4-yl)amino)acetamido)decyl)amino)-N-methyl-4-(phenylamino)quinoline-3-carboxamide] | < 100
17 | CCNC(=O)c1cnc2ccc(NCCCCCCCCCCNC(=O)COc3cccc4c3C(=O)N(C3CCC(=O)NC3=O)C4=O)cc2c1Nc1ccccc1 (centres unmarked) [Compound 452, 6-((10-(2-((2-(2,6-dioxopiperidin-3-yl)-1,3-dioxoisoindolin-4-yl)oxy)acetamido)decyl)amino)-N-ethyl-4-(phenylamino)quinoline-3-carboxamide] | < 100
18 | CNC(=O)c1cnc2ccc(C(=O)NCCCCCCCCNC(=O)COc3cccc4c3C(=O)N(C3CCC(=O)NC3=O)C4=O)cc2c1Nc1ccccc1 (centres unmarked) [Compound 453, N6-(8-(2-((2-(2,6-dioxopiperidin-3-yl)-1,3-dioxoisoindolin-4-yl)oxy)acetamido)octyl)-N3-methyl-4-(phenylamino)quinoline-3,6-dicarboxamide] | < 100
19 | CNC(=O)c1cnc2cc(OC)c(NCCCCCCCCCCNC(=O)COc3cccc4c3C(=O)N(C3CCC(=O)NC3=O)C4=O)cc2c1Nc1ccccc1 (centres unmarked) [Compound 454, 6-((10-(2-((2-(2,6-dioxopiperidin-3-yl)-1,3-dioxoisoindolin-4-yl)oxy)acetamido)decyl)amino)-7-methoxy-N-methyl-4-(phenylamino)quinoline-3-carboxamide] | < 100
20 | CNC(=O)c1cnc2ccc(C(=O)NCCCCCCCCCCCCNC(=O)COc3cccc4c3C(=O)N(C3CCC(=O)NC3=O)C4=O)cc2c1Nc1ccccc1 (centres unmarked) [Compound 455, N6-(12-(2-((2-(2,6-dioxopiperidin-3-yl)-1,3-dioxoisoindolin-4-yl)oxy)acetamido)dodecyl)-N3-methyl-4-(phenylamino)quinoline-3,6-dicarboxamide] | < 100
21 | CNC(=O)c1cnc2ccc(CNC(=O)CCCCCCCCNC(=O)COc3cccc4c3C(=O)N(C3CCC(=O)NC3=O)C4=O)cc2c1Nc1ccccc1 (centres unmarked) [Compound 456, 6-((9-(2-((2-(2,6-dioxopiperidin-3-yl)-1,3-dioxoisoindolin-4-yl)oxy)acetamido)nonanamido)methyl)-N-methyl-4-(phenylamino)quinoline-3-carboxamide] | < 100
22 | CC(C)NC(=O)c1cnc2ccc(NCCCCCCCCCCNC(=O)COc3cccc4c3C(=O)N(C3CCC(=O)NC3=O)C4=O)cc2c1Nc1ccccc1 (centres unmarked) [Compound 457, 6-((10-(2-((2-(2,6-dioxopiperidin-3-yl)-1,3-dioxoisoindolin-4-yl)oxy)acetamido)decyl)amino)-N-isopropyl-4-(phenylamino)quinoline-3-carboxamide] | < 100
23 | CNC(=O)c1cnc2ccc(C(=O)NCCCCCCNC(=O)COc3cccc4c3C(=O)N(C3CCC(=O)NC3=O)C4=O)cc2c1Nc1ccccc1 (centres unmarked) [Compound 458, N6-(6-(2-((2-(2,6-dioxopiperidin-3-yl)-1,3-dioxoisoindolin-4-yl)oxy)acetamido)hexyl)-N3-methyl-4-(phenylamino)quinoline-3,6-dicarboxamide] | < 100
